Test results from USRE48335E1, “Polymyxin derivatives as antimicrobial compounds” (priority 2014, dated 2020).
Values after ≈ are worked out from the molar mass of the structure shown. Positions of bridges follow the written chain, without caps; N, C: chain ends. Non-standard residues stand in square brackets, D forms with d. Residues, ends and D or L forms follow the SMILES beside them. *: point of attachment. Benzoyl(2,3-Cl2) = O=C(c1cccc(Cl)c1Cl)*; Benzoyl(3-Cl) = O=C(c1cccc(Cl)c1)*; X23 = O=C(c1c(Cl)cc(Cl)cc1Cl)*; Dab = NCC[C@H](N)C(=O)O; Abu = CC[C@H](N)C(=O)O; Dap = NC[C@H](N)C(=O)O

Legend:
[1] = Nephrotoxicity in a mouse model (kidney histology score); format: in vivo; parameters: key to Max Overall Kidney Histology Score: product of % score and grade score (grade 1-3); 30 to <45 = moderate; conditions: mice, subcutaneous 12 mg base/kg, 6 doses in one day every 2 h; for Max Overall Kidney Histology Score: kidney ~20 h after last dose, product of percentage score and grade score; for Max Kidney Histology Score: semiquantitative score (SQS) 0 to +5
Method: PMB sulphate (Batch 20120204) and colistin sulphate (Batch 20120719) were supplied by Betapharma (Shanghai Co., Ltd, China). […] At ˜20 h after the last dose, mice were euthanised by inhalation of an overdose of isoflurane. […] The formalin-fixed kidneys were then sent to the Australian Phenomics Network-Histopathology and Organ Pathology (The University of Melbourne, Parkville, VIC, Australia) for histological examination. The samples were examined by a pathologist who was blind to the treatment groups. Lesions were rated as follows: mild acute tubular damage with tubular dilation, prominent nuclei and a few pale […] tubular casts (Grade 1); severe acute tubular damage with necrosis of tubular epithelial cells and numerous tubular casts (Grade 2); acute cortical necrosis/infarction of tubules and glomeruli with or without papillary necrosis (Grade 3). […] The overall kidney histology score was calculated as the product of percentage score and grade score. […] These scores were assigned as follows: […] SQS+3=moderate damage (overall score, 30 to <45); […]

Acinetobacter baumannii = conditions: for Minimum inhibitory concentration, Ab A ATCC 17978: Acinetobacter baumannii ATCC 17978; for Minimum inhibitory concentration, Ab A ATCC 17978 / Minimum inhibitory concentration, Ab ATCC 19606 / Minimum inhibitory concentration, Ab FADDI-AB034: broth microdilution in CAMHB; for Minimum inhibitory concentration, Ab ATCC 19606: Acinetobacter baumannii ATCC 19606; for Minimum inhibitory concentration, Ab FADDI-AB034: Acinetobacter baumannii FADDI-AB034
Procedure, shortened: (§1)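 MICs were determined for the lipopeptides, tested as trifluoroacetic acid salts, by broth microdilution in cation-adjusted Mueller-Hinton broth following CLSI standards (M100-S18). Polymyxin B sulphate served as the control.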

Pseudomonas aeruginosa = conditions: for Minimum inhibitory concentration, Pa ATCC 27853: Pseudomonas aeruginosa ATCC 27853; for Minimum inhibitory concentration, Pa ATCC 27853 / Minimum inhibitory concentration, Pa FADDI-PA022 / Minimum inhibitory concentration, Pa FADDI-PA025: broth microdilution in CAMHB; for Minimum inhibitory concentration, Pa FADDI-PA022: Pseudomonas aeruginosa FADDI-PA022; for Minimum inhibitory concentration, Pa FADDI-PA025: Pseudomonas aeruginosa FADDI-PA025
Procedure, shortened: as §1

Enterobacter cloacae = conditions: broth microdilution in CAMHB; for Minimum inhibitory concentration, Ec FADDI-EC001: Enterobacter cloacae FADDI-EC001; for Minimum inhibitory concentration, Ec FADDI-EC003: Enterobacter cloacae FADDI-EC003; for Minimum inhibitory concentration, Ec FADDI-EC006: Enterobacter cloacae FADDI-EC006
Procedure, shortened: as §1

Klebsiella pneumoniae = conditions: K. pneumoniae FADDI-KP032
Procedure, shortened: as §1

A. baumannii ATCC 19606 = test: In vivo efficacy in mouse blood infection model (neutropenic Swiss mice); conditions: compound, free base 4 mg/kg intravenously 2 h after inoculation, blood at 4 h
Procedure, shortened: (§2)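 Neutropenic Swiss mice (cyclophosphamide 150 mg/kg day −4, 100 mg/kg day −1, i.p.) infected i.v. with early log-phase bacteria; 4 mg/kg free base i.v. given 2 h post-inoculation. Blood CFU by cardiac puncture 4 h post-dose; Δlog10 CFU/mL treated versus saline controls.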

P. aeruginosa ATCC 27853 = test: as above; conditions: compound, free base 4 mg/kg intravenously 2 h after inoculation, blood at 4 h
Procedure, shortened: as §2

Compound	nephrotoxicity in the in vivo nephrotoxicity model ([1]; kidney histology ~20 h after last dose)	Max Overall Kidney Histology Score [1]	Max Kidney Histology Score [1]	Minimum inhibitory concentration, Ab A ATCC 17978 (Acinetobacter baumannii) [µg/mL]	Minimum inhibitory concentration, Ab ATCC 19606 (Acinetobacter baumannii) [µg/mL]	Minimum inhibitory concentration, Ab FADDI-AB034 (Acinetobacter baumannii) [µg/mL]	Minimum inhibitory concentration, Pa ATCC 27853 (Pseudomonas aeruginosa) [µg/mL]	Minimum inhibitory concentration, Pa FADDI-PA022 (Pseudomonas aeruginosa) [µg/mL]	Minimum inhibitory concentration, Pa FADDI-PA025 (Pseudomonas aeruginosa) [µg/mL]	Minimum inhibitory concentration, Ec FADDI-EC001 (Enterobacter cloacae) [µg/mL]	Minimum inhibitory concentration, Ec FADDI-EC003 (Enterobacter cloacae) [µg/mL]	Minimum inhibitory concentration, Ec FADDI-EC006 (Enterobacter cloacae) [µg/mL]	MIC (Klebsiella pneumoniae) [µg/mL]	MIC (Acinetobacter baumannii; A. baumannii ATCC 19606) [µg/mL]	MIC (Pseudomonas aeruginosa; P. aeruginosa ATCC 27853) [µg/mL]	Δ log (Treated-Control at 4 h) (A. baumannii ATCC 19606) [log10 CFU/mL]	Δ log (Treated-Control at 4 h) (P. aeruginosa ATCC 27853) [log10 CFU/mL]
polymyxin B [reference compound]	severe nephrotoxicity	60.0	+5 (SQS+5=severe damage (overall score, >60))	1	1	0.5	1	1	1	0.25	0.5	0.5	–	–	–	–	–
CC[C@@H]1NC(=O)[C@@H](CC(C)C)NC(=O)[C@H](CCN)NC(=O)[C@@H](NC(=O)[C@H](CN)NC(=O)[C@@H](NC(=O)[C@H](CCN)NC(=O)c2c(Cl)cc(Cl)cc2Cl)[C@@H](C)O)CCNC(=O)[C@H]([C@@H](C)O)NC(=O)[C@H](CCN)NC(=O)[C@H](CCN)NC1=O [Compound 95] (X23-[Dab]T[Dap][Dab][Dab][dL][Abu][Dab][Dab]T; lactam 4-C)	–	0.0	0 (SQS 0=no significant change (overall score, <1))	0.25 (≈ 0.209 µM)	0.25 (≈ 0.209 µM)	0.25 (≈ 0.209 µM)	2 (≈ 1.67 µM)	4 (≈ 3.35 µM)	2 (≈ 1.67 µM)	<0.125	0.25 (≈ 0.209 µM)	1 (≈ 0.837 µM)	–	–	–	–	–
CC[C@@H]1NC(=O)[C@@H](CC(C)C)NC(=O)[C@H](CCN)NC(=O)[C@@H](NC(=O)[C@H](CN)NC(=O)[C@@H](NC(=O)[C@H](CCN)NC(=O)c2cccc(Cl)c2)[C@@H](C)O)CCNC(=O)[C@H]([C@@H](C)O)NC(=O)[C@H](CCN)NC(=O)[C@H](CCN)NC1=O [Compound 88] ({Benzoyl(3-Cl)}-[Dab]T[Dap][Dab][Dab][dL][Abu][Dab][Dab]T; lactam 4-C)	–	0.0	0 (SQS 0=no significant change (overall score, <1))	0.5 (≈ 0.444 µM)	2 (≈ 1.78 µM)	0.5 (≈ 0.444 µM)	0.5 (≈ 0.444 µM)	1 (≈ 0.888 µM)	2 (≈ 1.78 µM)	1 (≈ 0.888 µM)	0.25 (≈ 0.222 µM)	0.5 (≈ 0.444 µM)	0.5 (≈ 0.444 µM)	2 (≈ 1.78 µM)	0.5 (≈ 0.444 µM)	−2.46	−3.33
CC[C@@H]1NC(=O)[C@@H](CC(C)C)NC(=O)[C@H](CCN)NC(=O)[C@@H](NC(=O)[C@H](CN)NC(=O)[C@@H](NC(=O)[C@H](CCN)NC(=O)c2cccc(Cl)c2Cl)[C@@H](C)O)CCNC(=O)[C@H]([C@@H](C)O)NC(=O)[C@H](CCN)NC(=O)[C@H](CCN)NC1=O [Compound 90] ({Benzoyl(2,3-Cl2)}-[Dab]T[Dap][Dab][Dab][dL][Abu][Dab][Dab]T; lactam 4-C)	–	0.0	0 (SQS 0=no significant change (overall score, <1))	1 (≈ 0.862 µM)	2 (≈ 1.72 µM)	8 (≈ 6.9 µM)	0.5 (≈ 0.431 µM)	2 (≈ 1.72 µM)	2 (≈ 1.72 µM)	0.5 (≈ 0.431 µM)	8 (≈ 6.9 µM)	0.25 (≈ 0.215 µM)	–	–	–	–	–
